Columns and labels:
[1] = system: Salmonella typhimurium TA98 strain, TA100 strain; assay type: cell-based; conditions: Salmonella typhimurium TA98, TA100, non-metabolism and metabolism activating condition
Description: The mutagenicity of the compound of the present invention was assayed.
20 μL of freezing-stored rat typhoid bacillus (Salmonella typhimurium TA98 strain, TA100 strain) was inoculated on 10 mL of a liquid nutrient medium (2.5% Oxoid nutrient broth No. 2), and this was cultured before shaking at 37° C. for 10 hours. 9 mL of a bacterial solution of the TA98 strain was centrifuged (2000×g, 10 minutes) to remove a culturing solution. The bacteria was suspended in F buffer (K2HPO4: 3.5 g/L, KH2PO4: 1 g/L, (NH4)2SO4: 1 g/L, trisodium citrate dehydrate: 0.25 g/L, MgSO4.7H2O: 0.1 g/L), and the suspension was added to 110 mL of an Exposure medium (Micro F buffer containing Biotin: 8 μg/mL, histidine: 0.2 μg/mL, glucose: 8 mg/mL). The TA100 strain was added to 120 mL of the Exposure medium per 3.16 mL of the bacterial solution to prepare a test bacterial solution. […] of a test substance DMSO solution (several stage dilution from maximum dose 50 mg/mL at 2- to 3-fold ratio), DMSO as a negative control, 50 μg/mL of 4-nitroquinoline-1-oxide DMSO solution for the TA98 strain, 0.25 μg/mL of 2-(2-furyl)-3-(5-nitro-2-furyl)acrylamide DMSO solution for the TA100 strain each under the non-metabolism activating condition, 40 μg/mL of 2-aminoanthracene DMSO solution for the TA98 strain, 20 μg/mL of 2-aminoanthracene DMSO solution for the TA100 strain each under the metabolism activating condition all as a positive control, and 588 μL of the test bacterial solution (a mixed solution of 498 μL of the test bacterial solution and 90 μL of S9 mix under the metabolism activating condition) were mixed, and this was shaking-cultured at 37° C. for 90 minutes. […] Since a well containing a bacterium which has obtained the proliferation ability by mutation of an amino acid (histidine) synthesizing enzyme gene turns from purple to yellow due to a pH change, the bacterium proliferation well which has turned to yellow in 48 wells per dose is counted, and was assessed by comparing with a negative control group. […]

HIV (HTLV-III B strain) = assay: HIV replication inhibition assay (MTT, MT-4 cells); assay type: cell-based; conditions: Human immunodeficiency virus 1, MT4, 96 h, four days culture, concentration at which cell cytotoxicity by virus is inhibited 50%
Description: HIV (HTLV-III B strain) persistent infected human T cell strain Molt-4 clone 8 was cultured in 10% Fetal Bovine Serum-containing RPMI-1640 medium and the supernatant was filtrated, then the virus titer was measured and the solution was stored at −80° C. Each anti-human immunodeficiency virus active substance was diluted with the above cultured medium to the designated concentration, which was dispensed into 96 well micro plate by 50 μL. Next, a MT-4 cell suspended liquid was dispensed by 100 μL (2.5×10^4 cells), then the above HIV-containing supernatant diluted with the above cultured medium was added thereto by 50 μL (60 pfu (plaque forming unit)).
The obtained mixture was cultured at 37° C. in CO2 incubator for four days, then 3-(4,5-dimehylthiazole-2-yl)-2,5-diphenyltetrazolynium bromide (MTT) 5 mg/mL in PBS was added to each well by 30 μL, followed by 1 hr-cultivation. In this step, as formazan was precipitated by reduction of MTT in living cells, the cell supernatant was removed from all well by 150 μL, then a 150 μL of solution (10% Triton X-100 and […]) was added thereto, followed by shaking with a plate mixer, to elute formazan. The formazan was measured with a microreader at OD: 560 nm and 690 nm (wavelength) and the result was compared with the reference. EC50 means the compound concentration at which cell cytotoxicity by virus is inhibited 50%.

| SMILES | mutagenicity [1] | EC50 (HIV (HTLV-III B strain)) |
| --- | --- | --- |
| Cc1ccc(-c2c(C)c(-c3ccc(C)c(C)c3)c(C(OC(C)(C)C)C(=O)O)c(C)c2NS(C)(=O)=O)cc1C (stereo not shown) [Compound I-12] | negative | 6.4 nM |
| CCNC(=O)Nc1c(C)c(C(OC(C)(C)C)C(=O)O)c(-c2ccc(C)c(C)c2)c(C)c1-c1ccc(C)c(C)c1 (stereo not shown) [Compound I-11] | negative | 21 nM |
